Literature values as cited in patent publication US6348583B1, “Poly(ether-thioether), poly(ether-sulfoxide) and poly(ether-sulfone) nucleic acids” (Bio-Rad Laboratories, Inc., priority 1999, dated 2002).
Like-named read-outs stand apart in the source and are kept apart here.

Columns and labels:
[1] = aqueous buffers
[2] = tested on: dA10; conditions: duplex with dA10

## d(ApG)8: methylphosphonate oligonucleotide analog, SEQ ID NO:22 (DNA GAGAGAGAGAGAGAGA; methylphosphonate backbone, further chemistry not given here)
[1]
  solubility: less than 0.1 mM

## d(CpT)8: methylphosphonate oligonucleotide analog, SEQ ID NO:21 (DNA CTCTCTCTCTCTCTCT; methylphosphonate backbone, further chemistry not given here)
[1]; result in words
  solubility: soluble up to millimolar concentrations

## dT10: native DNA dT10, duplex with dA10 (SEQ ID NO:18) (TTTTTTTTTT)
[2]
  Tm value: about 24 °C
